Results: BindingDB's records for doi:10.1021/bi300955k (Dalhousie University, 2012)

Columns and labels:
Acetylcholinesterase = Acetylcholinesterase (Homo sapiens, UniProt P22303); assay: Inhibition Assay
Description: (§1) Inhibition constant using AChE or BuChE.

Cholinesterase = Cholinesterase (Homo sapiens, UniProt P06276); assay: Inhibition Assay
Description: as §1

Cholinesterase, sequence (P06276 whole entry): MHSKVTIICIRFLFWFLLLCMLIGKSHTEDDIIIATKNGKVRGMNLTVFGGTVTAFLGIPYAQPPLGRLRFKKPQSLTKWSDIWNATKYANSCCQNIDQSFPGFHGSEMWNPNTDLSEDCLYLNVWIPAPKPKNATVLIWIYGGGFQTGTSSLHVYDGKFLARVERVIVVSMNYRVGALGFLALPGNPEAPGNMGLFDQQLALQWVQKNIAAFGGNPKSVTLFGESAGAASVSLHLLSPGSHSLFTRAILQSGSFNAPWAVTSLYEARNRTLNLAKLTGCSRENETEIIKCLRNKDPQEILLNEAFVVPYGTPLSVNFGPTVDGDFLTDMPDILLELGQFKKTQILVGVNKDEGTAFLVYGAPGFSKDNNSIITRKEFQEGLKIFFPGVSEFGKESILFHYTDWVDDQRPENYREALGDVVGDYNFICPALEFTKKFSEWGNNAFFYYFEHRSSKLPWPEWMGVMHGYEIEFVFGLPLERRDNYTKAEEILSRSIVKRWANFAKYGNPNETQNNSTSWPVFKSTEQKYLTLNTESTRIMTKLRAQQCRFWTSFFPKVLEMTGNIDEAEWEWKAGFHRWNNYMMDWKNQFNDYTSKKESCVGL
Acetylcholinesterase, sequence (P22303 whole entry): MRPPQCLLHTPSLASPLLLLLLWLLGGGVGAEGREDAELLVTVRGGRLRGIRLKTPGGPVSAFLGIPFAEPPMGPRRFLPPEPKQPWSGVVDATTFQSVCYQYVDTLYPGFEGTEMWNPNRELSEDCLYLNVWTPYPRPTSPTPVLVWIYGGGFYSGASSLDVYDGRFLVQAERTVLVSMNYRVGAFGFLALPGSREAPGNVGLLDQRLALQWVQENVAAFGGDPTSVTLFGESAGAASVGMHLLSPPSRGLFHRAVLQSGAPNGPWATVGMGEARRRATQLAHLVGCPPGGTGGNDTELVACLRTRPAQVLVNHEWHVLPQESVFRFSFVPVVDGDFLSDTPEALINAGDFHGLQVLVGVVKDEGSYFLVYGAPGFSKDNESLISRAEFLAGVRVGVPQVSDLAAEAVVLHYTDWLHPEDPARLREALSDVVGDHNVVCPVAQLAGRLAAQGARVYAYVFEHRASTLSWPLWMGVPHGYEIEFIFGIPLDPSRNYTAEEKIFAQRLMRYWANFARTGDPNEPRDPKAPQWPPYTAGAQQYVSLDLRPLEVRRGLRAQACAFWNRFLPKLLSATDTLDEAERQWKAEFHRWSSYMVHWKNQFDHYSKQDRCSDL

Row | SMILES | Ki (Acetylcholinesterase) [µM] | Ki (Cholinesterase) [nM]
1 | CC(C)N(CCNC(=O)N1c2ccccc2Sc2ccccc21)C(C)C | 1.64 | 21
2 | O=C(c1c2ccccc2cc2ccccc12)N1c2ccccc2Sc2ccccc21 [Anthracen-9-yl (10H-phenothiazine-10yl) methanone, 5] |  | 16
3 | CC[N+](C)(C)c1cccc(O)c1 [Edrophonium Chloride, 3] |  | 198000
4 | Cc1ccc2c(c1)sc(-c1ccc(N(C)C)cc1)[n+]2C [Thioflavin T, 1] | 4.99 | 3620
